Consider 5 compounds from ChEMBL document CHEMBL1151801, “Synthesis of new indeno[1,2-e]pyrimido[4,5-b][1,4]diazepine-5,11-diones as potential antitumor agents” (2008).

Active and inactive are the calls of the source. The rule behind the calls is not given here.

The test system of this experiment is NCI60. The experiment can be described thus: Antitumor activity against human NCI60 cells at 1 uM. The class given is functional, cell-based.
Take `COc1ccc(C2Nc3nc(SC)[nH]c(=O)c3NC3=C2C(=O)c2ccccc23)cc1` (stereo not given): the outcome was inactive.

On to `COc1ccc(C2Nc3nc(SC)n(C)c(=O)c3NC3=C2C(=O)c2ccccc23)cc1` (stereo not given), for which the result was inactive.

Take `CSc1nc2c(c(=O)n1C)NC1=C(C(=O)c3ccccc31)C(c1ccccc1)N2` (stereo not given): the result was inactive.

In the case of `COc1nc2c(c(=O)n1C)NC1=C(C(=O)c3ccccc31)C(c1ccccc1)N2` (stereo not given), the result was inactive.

Turning to `COc1ccc(C2Nc3nc(OC)n(C)c(=O)c3NC3=C2C(=O)c2ccccc23)cc1` (stereo not given), the outcome was inactive.
